Assay [1] relates to Apo E knockout mice. In words: Quantification of aorta lesions (en face Sudan IV staining). In kind it is in vivo, mouse. Particulars: rosuvastatin 20 mg/kg/day; its own control 21.9 ± 2.9, P<0.05.
Text: Thirty-four male Apo E knockout mice were obtained from Jackson Laboratories (Bar Harbor, Me.). The mice were fed with normal mouse chow until 2 months of age and randomly allocated into two groups (n=17 each). One group of mice was then fed a control Western high-fat diet (F5722, fat 20%, cholesterol 2.1 gm/kg). The other group was fed a composition comprising C16:1n7-palmitoleate (CCO-Oil 20 wt %, cholesterol 2.1 gm/kg). […] Water was freely available throughout the course of the study. Blood samples were obtained 8 and 12 weeks after initiation of the diet. At 12 weeks, all mice were sacrificed by intraperitoneal injection of ketamine/xylazine. […] Data were presented as mean±SD. Statistical analysis was performed with t-test. P<0.05 indicates statistical significance.
The surface area of aorta occupied by atherosclerotic lesions was quantified by en face oil red 0 staining, using an approach modified from Palinski et al. After mice were killed, a catheter was inserted into the left ventricle and the arterial tree was perfused with PBS (25 ml), followed by 4% buffered formaldehyde (20 ml, PH 7.4) at a pressure of 100 mm Hg. Under a microscope (Leica M500) the entire aorta attached to the heart was dissected and the adventitial fat was dissected. The ascending aorta was transected, and the heart was placed in histo-choice for assessment of aortic root atherosclerosis. […]
Assay [2] concerns Apo E knockout mice. The assay is described as follows: Quantification of aortic sinus lesions (oil red O staining of aortic root). Format: in vivo, mouse. Particulars: rosuvastatin 20 mg/kg/day; its own control 0.36 ± 0.10.
Text: Thirty-four male Apo E knockout mice were obtained from Jackson Laboratories (Bar Harbor, Me.). The mice were fed with normal mouse chow until 2 months of age and randomly allocated into two groups (n=17 each). One group of mice was then fed a control Western high-fat diet (F5722, fat 20%, cholesterol 2.1 gm/kg). […] CCO-Oil has approximately 20 wt % C16:1n7-palmitoleate. The consistency of the food was a paste; it appeared to be enticing to the mice and well tolerated. Water was freely available throughout the course of the study. Blood samples were obtained 8 and 12 weeks after initiation of the diet. At 12 weeks, all mice were sacrificed by intraperitoneal injection of ketamine/xylazine. […] Data were presented as mean±SD. Statistical analysis was performed with t-test. P<0.05 indicates statistical significance.
The surface area of aorta occupied by atherosclerotic lesions was quantified by en face oil red 0 staining, using an approach modified from Palinski et al. After mice were killed, a catheter was inserted into the left ventricle and the arterial tree was perfused with PBS (25 ml), followed by 4% buffered formaldehyde (20 ml, PH 7.4) at a pressure of 100 mm Hg. Under a microscope (Leica M500) the entire aorta attached to the heart was dissected and the adventitial fat was dissected. […]

As to `CC(C)c1nc(N(C)S(C)(=O)=O)nc(-c2ccc(F)cc2)c1/C=C/[C@@H](O)C[C@@H](O)CC(=O)O` [Rosuvastatin], the “Aortic lesion (% of surface area)” value with Apo E knockout mice [1] was determined as 11.9 ± 1.9 %. For the same molecule, the “Aortic sinus lesion size” value in the assay on Apo E knockout mice [2] was determined as 0.35 ± 0.10 mm^2.

Values taken from US11419840B2, “Compositions and methods comprising C16:1N7-palmitoleate” (Tersus Life Sciences, LLC, priority 2011, dated 2022).
